Measured values as given in patent publication EP1355153A1, “Screening method for agents against cardiovascular diseases” (NAMAXX GENOMICS GMBH, priority 2002, dated 2003).

Test system: heart of the chick embryo
Assay: Relative stroke volume of the chick embryo heart by video microscopy (decrease by isoproterenol, rescue by metoprolol)
Format: in vivo, chicken
Conditions: for % remaining stroke volume: 50 µL isoproterenol 1 mM topically, followed by 20 µL metoprolol 15 mM or water-dimethylsulfoxide mix (isoproterenol alone), after 2 minutes at 22°C; for reduction of the stroke volume: isoproterenol alone or applied with metoprolol
Method: Fertilized Bovans Goldline brown chicken eggs (12 hrs after laying, kept at 18°C) were incubated at 38°C and 45 % humidity during 72 hrs (Motorbruter 126-EM, Bruja). The eggshell was then broken and the egg white, the yolk and the embryo were removed and placed in a Petri dish (Greiner, 9.4 cm diameter). This Petri dish was placed in a bigger Petri dish (Greiner, 14 cm diameter) containing water and an incubation is performed at 38°C and 45 % humidity for 24 hrs or 48 hrs. The relative stroke volume of the heart of the chick embryo was then estimated by video microscopy using a binocular (SZX-ZB9, Olympus), a CCD camera (F-View, Soft Imaging Systems) and an image analysis software (AnalySIS Auto Software, Soft Imaging Systems). The beating heart of the embryo was filmed and the grey density of the heart area under systole was subtracted from the density of the heart area under diastole. By performing said subtraction, the so-called "relative stroke volume" is obtained, which represents a relative value instead of a volume.
50 µL of a isoproterenol (Sigma) solution (1mM, water) was then topically applied on the surface of the embryo, followed by 20 µL metoprolol (Sigma) solution (15 mM, Vol-90 % water, 10 % dimethylsulfoxide). Metoprolol is a marketed drug for human use against heart failure (M. Andrejak and M. Slama, Presse Med. 27:2025-30 (1998)). After 2 minutes at 22°C, the heart was monitored and the relative stroke volume was measured. The same experiment was performed by replacing the metoprolol solution by a water-dimethylsulfoxide mix (90 %-10 %) in order to investigate the effect of isoproterenol alone. Controls were performed with untreated embryos. The test groups of the 96 hrs old embryos (Table 1) comprise seven embryos each, while the test groups of the 120 hrs old embryos (Table 2) comprise five embryos each.

[1] = 96 hrs old embryos, after 2 minutes
[2] = 120 hrs old embryos, after 2 minutes incubation

| SMILES | % remaining stroke volume (96 hrs old embryos (n=7)) | reduction of the stroke volume [1] | % remaining stroke volume (120 hrs old embryos (n=5)) | reduction of the stroke volume [2] |
| --- | --- | --- | --- | --- |
| CC(C)NCC(O)c1ccc(O)c(O)c1 (centres unmarked) [Isoproterenol, isoproterenol] | 25,5% | 75% | 27,2% | 72% |
| COCCc1ccc(OCC(O)CNC(C)C)cc1 (centres unmarked) [metoprolol] | 57,0% | 43% | 58,8% | 41% |
